In ChEMBL document CHEMBL1909046, “DrugMatrix in vitro pharmacology data”:

Columns and labels:
Glycine receptor = Glycine receptor (Rattus norvegicus, UniProt P22771+P24524+P07727+P20781); assay type: cell membranes, Wistar, Spinal cord, Membrane; further: in other assays of this panel Not Active means under 50% inhibition at 10 µM
[1] = biological target: T1, Nitric oxide synthase, inducible (Mus musculus, UniProt P29477); set-up: species or system Escherichia coli;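 further: inhibition of iNOS enzyme activity measured with L-arginine as substrate; in other assays of this panel Not Active means under 50% inhibition at 10 µM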
T1 sequence (P29477 whole entry): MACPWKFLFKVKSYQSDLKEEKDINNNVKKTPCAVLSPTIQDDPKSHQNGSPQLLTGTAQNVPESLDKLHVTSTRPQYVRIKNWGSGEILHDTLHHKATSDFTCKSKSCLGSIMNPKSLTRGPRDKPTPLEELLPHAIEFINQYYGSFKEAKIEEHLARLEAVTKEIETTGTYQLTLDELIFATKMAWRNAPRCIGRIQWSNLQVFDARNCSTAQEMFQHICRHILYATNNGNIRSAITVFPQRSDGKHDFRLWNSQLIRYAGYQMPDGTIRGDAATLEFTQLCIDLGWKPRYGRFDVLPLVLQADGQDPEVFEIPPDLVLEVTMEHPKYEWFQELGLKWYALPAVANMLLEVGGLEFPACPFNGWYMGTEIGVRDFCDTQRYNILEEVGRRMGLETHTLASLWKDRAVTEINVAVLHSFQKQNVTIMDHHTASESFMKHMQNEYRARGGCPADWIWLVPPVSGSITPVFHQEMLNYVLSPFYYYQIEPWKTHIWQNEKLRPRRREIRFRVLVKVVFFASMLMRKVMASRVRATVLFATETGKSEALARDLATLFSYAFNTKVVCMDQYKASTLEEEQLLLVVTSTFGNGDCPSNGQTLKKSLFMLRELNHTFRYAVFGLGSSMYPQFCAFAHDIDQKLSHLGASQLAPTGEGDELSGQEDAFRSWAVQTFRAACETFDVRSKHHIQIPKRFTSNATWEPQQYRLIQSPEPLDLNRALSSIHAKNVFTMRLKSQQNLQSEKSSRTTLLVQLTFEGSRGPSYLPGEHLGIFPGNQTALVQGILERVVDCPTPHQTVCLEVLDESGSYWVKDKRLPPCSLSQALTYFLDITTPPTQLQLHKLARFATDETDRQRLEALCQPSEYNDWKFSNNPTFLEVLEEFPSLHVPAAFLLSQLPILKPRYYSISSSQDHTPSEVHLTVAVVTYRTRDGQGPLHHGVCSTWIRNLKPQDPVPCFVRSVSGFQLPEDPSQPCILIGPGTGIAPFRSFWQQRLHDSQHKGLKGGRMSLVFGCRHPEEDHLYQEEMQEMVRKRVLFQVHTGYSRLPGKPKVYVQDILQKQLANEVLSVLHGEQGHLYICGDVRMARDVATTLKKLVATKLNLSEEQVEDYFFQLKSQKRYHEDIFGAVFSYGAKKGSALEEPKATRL

Melanocortin receptor 4 = Melanocortin receptor 4 (Homo sapiens, UniProt P32245); assay type: cell membranes, Membrane; settings: hek293; further: in other assays of this panel Not Active means under 50% inhibition at 10 µM
Chain of Melanocortin receptor 4 (P32245 whole entry): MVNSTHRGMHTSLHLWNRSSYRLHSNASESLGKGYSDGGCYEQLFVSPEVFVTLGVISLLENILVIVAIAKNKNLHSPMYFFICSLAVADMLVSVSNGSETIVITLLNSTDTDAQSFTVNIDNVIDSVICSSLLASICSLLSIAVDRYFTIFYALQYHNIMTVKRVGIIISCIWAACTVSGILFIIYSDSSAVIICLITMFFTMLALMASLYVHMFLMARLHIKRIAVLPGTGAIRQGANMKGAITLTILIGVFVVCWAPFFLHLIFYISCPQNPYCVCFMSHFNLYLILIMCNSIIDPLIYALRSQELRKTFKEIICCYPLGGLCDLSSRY

[2] = biological target: T2, Polyunsaturated fatty acid lipoxygenase ALOX15 (Oryctolagus cuniculus, UniProt P12530); experiment: biochemical; assay type: tissue-based, Reticulocytes; settings: reticulocytes;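 further: inhibition of 15-lipoxygenase enzyme activity measured with linoleic acid as the substrate; in other assays of this panel Not Active means under 50% inhibition at 10 µM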
T2 sequence (P12530 whole entry): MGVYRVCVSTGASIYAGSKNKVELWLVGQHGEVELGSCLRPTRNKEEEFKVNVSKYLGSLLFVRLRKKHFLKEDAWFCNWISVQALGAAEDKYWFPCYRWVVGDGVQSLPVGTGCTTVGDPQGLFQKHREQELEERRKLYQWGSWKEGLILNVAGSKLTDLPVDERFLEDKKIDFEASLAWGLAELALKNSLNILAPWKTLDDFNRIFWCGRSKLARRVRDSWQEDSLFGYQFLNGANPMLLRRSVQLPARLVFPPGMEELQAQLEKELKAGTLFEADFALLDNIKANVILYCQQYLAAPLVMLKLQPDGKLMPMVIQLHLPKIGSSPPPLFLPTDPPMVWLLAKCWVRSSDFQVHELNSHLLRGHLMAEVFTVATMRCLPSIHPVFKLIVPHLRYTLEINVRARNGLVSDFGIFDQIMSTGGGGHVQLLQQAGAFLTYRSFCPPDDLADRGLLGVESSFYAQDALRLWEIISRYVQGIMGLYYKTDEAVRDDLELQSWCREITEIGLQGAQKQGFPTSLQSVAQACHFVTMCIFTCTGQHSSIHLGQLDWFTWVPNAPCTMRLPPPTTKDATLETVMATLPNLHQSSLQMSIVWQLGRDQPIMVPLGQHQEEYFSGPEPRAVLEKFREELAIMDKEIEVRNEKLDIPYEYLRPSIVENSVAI

[3] = DRUGMATRIX: Leukotriene, BLT (LTB4) radioligand binding (ligand: [3H]LTB4); assay type: cell membranes, Membrane; settings: u-937; Not Active = under 50% inhibition at 10 µM
D(3) dopamine receptor = D(3) dopamine receptor (Homo sapiens, UniProt P35462); experiment: DRUGMATRIX: Dopamine D3 radioligand binding (ligand: [3H] Spiperone); assay type: cell membranes, CHO, Membrane; settings: cho
Chain of D(3) dopamine receptor (P35462 whole entry): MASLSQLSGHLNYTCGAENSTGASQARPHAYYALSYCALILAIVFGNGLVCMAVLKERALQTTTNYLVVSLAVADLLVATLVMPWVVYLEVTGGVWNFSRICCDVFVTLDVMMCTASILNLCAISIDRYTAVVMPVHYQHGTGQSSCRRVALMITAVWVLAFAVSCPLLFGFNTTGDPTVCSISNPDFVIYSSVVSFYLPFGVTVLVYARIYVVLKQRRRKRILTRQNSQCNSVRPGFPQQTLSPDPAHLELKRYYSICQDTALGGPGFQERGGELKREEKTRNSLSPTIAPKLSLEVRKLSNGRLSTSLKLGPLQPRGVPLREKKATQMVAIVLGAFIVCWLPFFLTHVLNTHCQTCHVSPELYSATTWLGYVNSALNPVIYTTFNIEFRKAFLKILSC

[4] = DRUGMATRIX: Calcium Channel Type L, Dihydropyridine radioligand binding (ligand: [3H] Nitrendipine); assay type: cell membranes, Rattus norvegicus, Wistar, Cerebral cortex, Membrane; settings: Not Active = under 50% inhibition at 10 µM
Cannabinoid receptor 1 = Cannabinoid receptor 1 (Homo sapiens, UniProt P21554); assay type: cell membranes, Membrane; settings: chem-1; further: in other assays of this panel Not Active means under 50% inhibition at 10 µM
Chain of Cannabinoid receptor 1 (P21554 whole entry): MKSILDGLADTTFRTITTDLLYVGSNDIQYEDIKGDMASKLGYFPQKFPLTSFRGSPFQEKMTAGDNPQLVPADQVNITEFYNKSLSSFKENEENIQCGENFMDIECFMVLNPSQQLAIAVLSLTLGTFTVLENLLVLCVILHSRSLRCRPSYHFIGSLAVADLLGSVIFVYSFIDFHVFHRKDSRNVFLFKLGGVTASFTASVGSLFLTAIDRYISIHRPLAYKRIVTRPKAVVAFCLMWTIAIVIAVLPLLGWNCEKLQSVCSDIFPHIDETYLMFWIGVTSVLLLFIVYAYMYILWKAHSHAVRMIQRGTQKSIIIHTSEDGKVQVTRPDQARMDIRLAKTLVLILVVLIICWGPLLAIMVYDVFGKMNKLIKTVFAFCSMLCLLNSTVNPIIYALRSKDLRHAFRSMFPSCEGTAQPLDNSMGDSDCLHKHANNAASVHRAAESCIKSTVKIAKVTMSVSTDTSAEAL

[5] = biological target: T3, Type-2 angiotensin II receptor (Homo sapiens, UniProt P50052); assay type: cell-based; settings: cho-k1; further: in other assays of this panel Not Active means under 50% inhibition at 10 µM
T3 sequence (P50052 whole entry): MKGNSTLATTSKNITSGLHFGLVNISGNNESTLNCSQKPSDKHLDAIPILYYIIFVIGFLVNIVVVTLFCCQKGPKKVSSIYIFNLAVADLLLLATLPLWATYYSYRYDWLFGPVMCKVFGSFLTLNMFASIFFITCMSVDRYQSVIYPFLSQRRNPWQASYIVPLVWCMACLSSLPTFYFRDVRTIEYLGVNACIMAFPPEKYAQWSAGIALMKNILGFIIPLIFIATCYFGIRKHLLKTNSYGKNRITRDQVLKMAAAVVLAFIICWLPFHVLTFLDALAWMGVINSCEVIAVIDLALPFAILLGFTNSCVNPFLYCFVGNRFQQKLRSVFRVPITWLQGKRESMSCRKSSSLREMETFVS

[6] = biological target: Tyrosine-protein kinase Lck (Homo sapiens, UniProt P06239); experiment: DRUGMATRIX: Protein Tyrosine Kinase, LCK enzyme inhibition (substrate: Poly(Glu:Tyr)); assay type: cell-based, Insect cells; settings: insect cells, Not Active = under 50% inhibition at 10 µM
Chain of Tyrosine-protein kinase Lck (P06239 whole entry): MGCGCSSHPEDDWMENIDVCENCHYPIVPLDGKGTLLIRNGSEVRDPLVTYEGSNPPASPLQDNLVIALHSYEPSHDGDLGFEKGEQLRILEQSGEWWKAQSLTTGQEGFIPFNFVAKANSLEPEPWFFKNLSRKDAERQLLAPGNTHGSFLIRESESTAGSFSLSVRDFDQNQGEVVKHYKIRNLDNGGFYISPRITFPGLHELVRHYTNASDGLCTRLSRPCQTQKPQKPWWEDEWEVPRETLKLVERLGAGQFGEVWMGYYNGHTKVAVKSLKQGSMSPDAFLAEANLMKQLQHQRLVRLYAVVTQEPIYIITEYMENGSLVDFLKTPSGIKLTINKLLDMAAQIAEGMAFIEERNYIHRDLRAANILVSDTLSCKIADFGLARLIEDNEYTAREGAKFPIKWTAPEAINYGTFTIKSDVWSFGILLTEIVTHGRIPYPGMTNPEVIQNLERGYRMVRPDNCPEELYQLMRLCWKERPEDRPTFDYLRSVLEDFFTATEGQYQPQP

[7] = biological target: Mitogen-activated protein kinase 14 (Homo sapiens, UniProt Q16539); set-up: species or system Escherichia coli
Chain of Mitogen-activated protein kinase 14 (Q16539 whole entry): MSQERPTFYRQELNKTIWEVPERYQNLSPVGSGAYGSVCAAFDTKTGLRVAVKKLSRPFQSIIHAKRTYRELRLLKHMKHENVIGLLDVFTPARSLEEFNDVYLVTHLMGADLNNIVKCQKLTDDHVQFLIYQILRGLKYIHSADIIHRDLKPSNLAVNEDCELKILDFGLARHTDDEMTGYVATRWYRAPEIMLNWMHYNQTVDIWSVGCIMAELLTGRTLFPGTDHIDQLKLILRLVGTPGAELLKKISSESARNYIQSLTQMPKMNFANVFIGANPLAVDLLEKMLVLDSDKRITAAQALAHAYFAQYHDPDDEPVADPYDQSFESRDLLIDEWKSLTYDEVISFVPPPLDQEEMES

Cytochrome P450 2E1 = Cytochrome P450 2E1 (Homo sapiens, UniProt P05181); settings: bti-tn-5b1-4; further: in other assays of this panel Not Active means under 50% inhibition at 10 µM
Chain of Cytochrome P450 2E1 (P05181 whole entry): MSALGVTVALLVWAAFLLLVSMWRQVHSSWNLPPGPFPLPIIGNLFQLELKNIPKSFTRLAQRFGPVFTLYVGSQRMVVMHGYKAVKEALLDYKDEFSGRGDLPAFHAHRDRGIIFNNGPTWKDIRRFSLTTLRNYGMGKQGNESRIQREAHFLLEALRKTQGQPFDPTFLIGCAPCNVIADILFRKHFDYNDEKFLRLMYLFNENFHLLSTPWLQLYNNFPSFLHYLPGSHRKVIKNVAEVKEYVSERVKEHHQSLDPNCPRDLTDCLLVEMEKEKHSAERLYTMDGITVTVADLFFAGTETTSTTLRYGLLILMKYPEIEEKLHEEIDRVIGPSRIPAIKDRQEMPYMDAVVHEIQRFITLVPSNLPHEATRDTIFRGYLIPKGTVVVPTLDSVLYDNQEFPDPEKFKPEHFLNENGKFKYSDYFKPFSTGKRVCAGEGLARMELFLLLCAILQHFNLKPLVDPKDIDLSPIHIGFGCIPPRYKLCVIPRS

Compound | IC50 (Glycine receptor) | IC50 [1] | IC50 (Melanocortin receptor 4) | IC50 [2] | IC50 [3] | Ki [3] | IC50 (D(3) dopamine receptor) | IC50 [4] | Ki [4] | IC50 (Cannabinoid receptor 1) | IC50 [5] | IC50 [6] | IC50 [7] | IC50 (Cytochrome P450 2E1) | Ki (Cytochrome P450 2E1) | Ki (Glycine receptor) | Ki [1] | Ki (Melanocortin receptor 4) | Ki [2] | Ki (D(3) dopamine receptor) | also measured
CN1C(C(=O)Nc2ccccn2)=C(O)c2ccccc2S1(=O)=O [PIROXICAM] | Not Active | Not Active | Not Active | Not Active | Not Active | Not Active | Not Active | Not Active | Not Active | Not Active | Not Active | Not Active | Not Active | Not Active | Not Active | – | – | – | – | – | –
CCC1(c2ccccc2)C(=O)NCNC1=O [PRIMIDONE] | Not Active | Not Active | Not Active | Not Active | Not Active | Not Active | Not Active | Not Active | Not Active | Not Active | Not Active | Not Active | Not Active | Not Active | Not Active | – | – | – | – | – | –
CCCc1cc(=O)[nH]c(=S)[nH]1 [PROPYLTHIOURACIL] | Not Active | Not Active | Not Active | Not Active | Not Active | Not Active | Not Active | Not Active | Not Active | Not Active | Not Active | Not Active | Not Active | Not Active | Not Active | – | – | – | – | – | –
COc1ccc(CN(CCN(C)C)c2ccccn2)cc1 [PYRILAMINE] | Not Active | Not Active | Not Active | Not Active | Not Active | Not Active | Not Active | Not Active | Not Active | Not Active | Not Active | Not Active | Not Active | Not Active | Not Active | – | – | – | – | – | –
CARBOPLATIN | Not Active | Not Active | Not Active | Not Active | Not Active | Not Active | Not Active | Not Active | Not Active | Not Active | Not Active | Not Active | Not Active | Not Active | Not Active | Not Active | Not Active | Not Active | Not Active | Not Active | Ki (Cannabinoid receptor 1): Not Active; Ki [5]: Not Active; Ki [6]: Not Active; Ki [7]: Not Active
CISPLATIN | Not Active | Not Active | Not Active | Not Active | Not Active | Not Active | Not Active | Not Active | Not Active | Not Active | Not Active | – | Not Active | Not Active | Not Active | Not Active | Not Active | Not Active | Not Active | Not Active | Ki (Cannabinoid receptor 1): Not Active; Ki [5]: Not Active; IC50 ([6]; read-out: IC50): 22.9 µM; Ki [7]: Not Active
GOLD SODIUM THIOMALATE | Not Active | Not Active | Not Active | Not Active | Not Active | Not Active | Not Active | Not Active | Not Active | Not Active | Not Active | Not Active | Not Active | Not Active | Not Active | Not Active | Not Active | Not Active | Not Active | Not Active | Ki (Cannabinoid receptor 1): Not Active; Ki [5]: Not Active; Ki [6]: Not Active; Ki [7]: Not Active
OXALIPLATIN | Not Active | Not Active | Not Active | Not Active | Not Active | Not Active | Not Active | Not Active | Not Active | Not Active | Not Active | Not Active | Not Active | Not Active | Not Active | Not Active | Not Active | Not Active | Not Active | Not Active | Ki (Cannabinoid receptor 1): Not Active; Ki [5]: Not Active; Ki [6]: Not Active; Ki [7]: Not Active
